# How the values were obtained:
# B16F10 melanoma cells = experiment: In vitro anti-tumor experiment, growth inhibition of B16F10 cells; assay type: cell-based; settings: Mus musculus, B16-F10; B16F10, 72 hours incubation
# Description: (§1) Hepatoma HepG2 cells were cultured in a MEM culture medium (containing 10% fetal bovine serum, 25 mM HEPES and 0.1 mg/ml kanamycin) under conditions of 5% carbon dioxide at 37° C. HepG2 cells were harvested as single free cells by a tripsin/EDTA treatment in the logarithmic growth phase, and a cell suspension solution consisted of 2×10^4 cells per ml was prepared with MEM culture medium (containing 10% fetal bovine serum, 25 mM HEPES and 0.1 mg/ml kanamycin). The test compound was dissolved in DMSO, then diluted with RPMI1640 culture medium (containing 10% fetal bovine serum, 25 mM HEPES, 0.1 mg/ml kanamycin), and adjusted to a concentration of 2.0×10^−9 to 2.0×10^−3 M.
# (§2) 0.1 ml of the cell suspension solution was put in each well of a 96-well plate, then cultured for 24 hours to make the cells adhere to the microplates, and 0.1 ml of the test compound was added in each well and incubated for 72 hours under conditions of 5% carbon dioxide at 37° C. The 50% growth inhibition concentration (GI50 value μM) was computed from the growth inhibition rates at various test sample concentrations, and the results are shown in Table 1.
# (§3) When using cells other than HepG2 cells, the following culture media were used instead of the MEM culture medium, and the following single cell suspensions were prepared with the following media:
# RPMI1640 culture medium containing 10% fetal bovine serum, 1×10^4 cell suspension
# [1] = system: PC-3 prostate cancer cells; experiment: In vitro anti-tumor experiment, growth inhibition of PC-3 cells; assay type: cell-based; settings: Homo sapiens; PC-3, 72 hours incubation
# Description: as §1, §2, §3
# PC-3 prostate cancer cells:
# F12K culture medium containing 10% fetal bovine serum, 2×10^4 cell suspension
# Hepatoma HepG2 cells = experiment: In vitro anti-tumor experiment, growth inhibition of HepG2 cells; assay type: cell-based; settings: Homo sapiens; HepG2, 72 hours incubation
# Description: as §1, §2
compound,measurement,setting,value
"C[C@@H]1CO[C@@H](C)CN1c1nc(N2CCOCC2)nc(-n2c(C(F)F)nc3ccccc32)n1 (relative stereo) [Compound 3, 2-(2-difluoromethylbenzimidazol-1-yl)-4-(trans-2,5-dimethylmorpholino)-6-morpholino-1,3,5-triazine]",GI50,B16F10 melanoma cells,1140 nM
same,melting point,,166 to 169 °C
same,GI50,[1],490 nM
same,GI50,Hepatoma HepG2 cells,1120 nM

# Reference: US20070244110A1, “Treatment of prostate cancer, melanoma or hepatic cancer” (ZENYAKU KOGYO KABUSHIKI KAISHA, priority 2006, published 2007)
